Laboratory results as given in patent US9441024B2, “Glycosylated polypeptide and drug composition containing said polypeptide” (priority 2011, dated 2016).

Experiments:
[1] = system: growth hormone (GH) production; experiment: GH production suppression test with rats; type: in vivo, rat; conditions: for GH concentration in plasma / GH production suppression activity (in words): rat; for GH concentration in plasma: 1 hour before GRF, blood 5 minutes after GRF, vehicle 861; for GH: rat plasma GH concentration; for GH production suppression activity (in words): s.c., 10 or 100 nmol/kg
Text: As shown in Example 69, the glycosylated polypeptide of the present invention had affinity towards each receptor of SSTR. […] Increase of GH production amount into the blood is thought to cause proliferation or differentiation of cells and activation or suppression of the biosynthetic system in various organs via the paracrine effect of GH, and thereby influence biological reactions. Somatostatin released from the hypothalamus suppresses GH secretion from the anterior pituitary gland into the blood.
. Moreover, GRF (GH releasing hormone, Growth hormone releasing factor) was used as the GH release enhancer. GRF was prepared by dissolving GRF injectable solution (GRF Sumitomo 50 for injection, Lot. 2006C, from Dainippon Sumitomo Pharma Co., Ltd.) in 1 mL of water for injection (Lot. 09H18C, from Fuso Pharmaceutical Industries, Ltd.), and then diluting to 25-folds with saline to obtain 2 μg/mL. As heparin employed as the anticoagulant when collecting blood, Japanese Pharmacopeia heparin sodium injectable solution (Lot. B084, from Mochida Pharmaceutical Co., Ltd.) was used directly as stock solution.
[…]. As the control group, saline without glycosylated polypeptide was similarly administered (vehicle group). Then, i.e. between 5-6 minutes after the administration of the glycosylated form, pentobarbital sodium (somnopentyl, Lot. 0608101, from Kyoritsuseiyaku Corporation) was intraperitoneally administered as a general anesthetic with a glass syringe and an injection needle to give 50 mg/kg. […] […].
. […] By multiplying the results obtained and the dilution ratio, the GH concentration was calculated.

[2] = system: rat gastrointestinal obstruction model; experiment: Gastrointestinal obstruction model: blood parameters (amylase, LDH, CPK); type: in vivo
Method: This experimental line was carried out as a test line to evaluate the promotion of intestinal fluid absorption or the secretory suppressing action, using the change in the intestinal fluid weight in the jejunum after bowel obstruction as an indicator. Moreover, blood parameters of deviation enzymes amylase (pancreas), lactate dehydrogenase (LDH, liver), and creatine phosphokinase (CPK, skeletal muscle, cardiac muscle etc.) were measured as indicators of tissue disorders.
The present test was consigned to Mitsubishi Chemical Medience Corporation and carried out. […] Anesthesia was introduced with inhalation of 2% isoflurane and laughing gas:oxygen=7:3, and this was maintained throughout the surgery. A median incision was made in the abdomen, and the jejunum at about 10 cm from the musculus suspensorius duodeni was ligated with a surgical suture. Then, the incision site was promptly sutured, and the rats were fasted until compound administration. In the sham treatment group, ligation of the jejunum was not performed, but the treatment of suturing the incision site after a median incision was made in the abdomen was performed.
(§1) Eighteen hours after the gastrointestinal obstruction surgery, this was subcutaneously administered into the dorsal cervix at a dosage of 1 mL/kg with a glass syringe and a 25 G injection needle (all from Terumo Corporation). As the vehicle group, saline without glycosylated polypeptide was similarly administered.
One hour after compound administration, a median incision was made in the abdomen under inhalation anesthesia, and 1.5 mL of blood was collected from the abdominal vena cava.
The measuring methods employed were BG5B, UV-rate, and JSCC methods, respectively.

[3] = system: rat gastrointestinal obstruction model; experiment: Gastrointestinal obstruction model: intestinal fluid weight of the jejunum; type: in vivo; conditions: for Intestinal fluid weight: Table 9, rat, 40 μM solution 1 mL/kg s.c. 18 h after ligation, 1 h after administration
Text: Anesthesia was introduced with inhalation of 2% isoflurane and laughing gas:oxygen=7:3, and this was maintained throughout the surgery. A median incision was made in the abdomen, and the jejunum at about 10 cm from the musculus suspensorius duodeni was ligated with a surgical suture. Then, the incision site was promptly sutured, and the rats were fasted until compound administration. In the sham treatment group, ligation of the jejunum was not performed, but the treatment of suturing the incision site after a median incision was made in the abdomen was performed.
as §1
One hour after compound administration, a median incision was made in the abdomen under inhalation anesthesia, and 1.5 mL of blood was collected from the abdominal vena cava. Then, the ligated jejunum on the musculus suspensorius duodeni side was resected. The fluid and blood on the jejunum surface were removed with a paper towel, nerves, blood vessels, and fat attached to the jejunum was removed, this was cut into 6 cm lengths, and wet weight was measured. This was then dried at 36 degrees for 24 hours, and dry weight was measured. The intestinal fluid weight (mg) was calculated by wet weight-dry weight.

SSTR1-SSTR5 = experiment: Competitive binding assay, statements over all receptors SSTR1-SSTR5; parameters: species or system Human; conditions: range over SSTR1-SSTR5, Example 69-1
Method: Competitive binding assay was performed with the method below to calculate receptor binding affinity.
Competitive binding assay was consigned to Ricerca Biosciences, and experiment and data analysis was performed. […] The test substance was used at a concentration of 0.01 nM, 0.1 nM, 1 nM, 10 nM, 100 nM, or 1000 nM, and mixed with the membrane sample into a reaction solution. The incubation condition of the reaction solution was at 25° C. for 4 hours for SSTR2 and at 25° C. for 2 hours for SSTR1, SSTR3, SSTR4, and SSTR5.

[4] = Table 10, blood 1 h after s.c. administration
[5] = blood collected one hour after compound administration, rat gastrointestinal obstruction model

Compound: 29C(disialo)-SRIF28 [Example 13]
- GH concentration in plasma ([1]; subcutaneous 10 nmol/kg): 497 ng/mL
- GH concentration in plasma ([1]; subcutaneous 100 nmol/kg): 88.5 ng/mL

Compound: C[C@@H](O)[C@@H]1NC(=O)[C@H](CCCCN)NC(=O)[C@@H](Cc2c[nH]c3ccccc23)NC(=O)[C@H](Cc2ccccc2)NC(=O)[C@@H](NC(=O)[C@H](N)Cc2ccccc2)CSSC[C@@H](C(=O)N[C@H](CO)[C@@H](C)O)NC1=O [Octreotide]
- Amylase activity compared to the vehicle (in words) [2, 4]: equivalent to the vehicle
- LDH activity compared to the vehicle (in words) [2, 4]: low value compared to the vehicle
- Amylase (IU/L) [2, 5]: 1732 ± 774 IU/L
- CPK (IU/L) [2, 5]: 472 ± 215 IU/L
- LDH (IU/L) [2, 5]: 269 ± 141 IU/L
- Intestinal fluid weight [3]: 693 ± 48 mg

Compound: A9C(disialo)-SRIF28 [Example 3]
- GH ([1]; dose 1 nmol/kg): 577 ng/mL
- GH ([1]; dose 10 nmol/kg): 20 ng/mL

Compound: E12C(disialo)-SRIF28 [Example 4]
- GH ([1]; dose 10 nmol/kg): 10 ng/mL

Compound: K14C(disialo)-SRIF28 [Example 6]
- GH ([1]; dose 10 nmol/kg): 55 ng/mL
- GH production suppression activity (in words) [1]: showed GH production suppression activity

Compound: N5C(disialo)-SRIF28 [Example 2]
- GH ([1]; dose 1 nmol/kg): 969 ng/mL
- GH ([1]; dose 10 nmol/kg): 12 ng/mL

Compound: N19C(disialo)-SRIF28 [Example 10]
- GH concentration in plasma ([1]; subcutaneous 10 nmol/kg): 563 ng/mL
- GH concentration in plasma ([1]; subcutaneous 100 nmol/kg): 1.5 ng/mL

Compound: R13C(disialo)-SRIF28 [Example 5]
- GH ([1]; dose 10 nmol/kg): 136 ng/mL
- GH production suppression activity (in words) [1]: showed GH production suppression activity

Compound: S1-2C(asialo)-SRIF28 [Example 28]
- Intestinal fluid weight [3]: 566 ± 34 mg
- Intestinal fluid weight compared to the vehicle (in words) ([3]; text on Table 9): increase in the intestinal fluid weight compared to the vehicle
- Affinity towards SSTR1-SSTR5, times higher than S1C(disialo)-SRIF28 (SSTR1-SSTR5): 1.7-2.9 folds
- GH ([1]; dose 3 nmol/kg): 997 ng/mL
- GH ([1]; dose 10 nmol/kg): 175 ng/mL

Compound: S1C(asialo)-SRIF28 [Example 27]
- GH ([1]; dose 1 nmol/kg): 879 ng/mL
- GH ([1]; dose 3 nmol/kg): 515 ng/mL
- GH ([1]; dose 10 nmol/kg): 146 ng/mL

Compound: S1C(disialo(Bn))-SRIF28 [Example 61]
- GH ([1]; dose 10 nmol/kg): 49 ng/mL

Compound: S1C(disialo(amide))-SRIF28 [Example 60]
- GH ([1]; dose 10 nmol/kg): 14 ng/mL

Compound: S1C(disialo(aminoethylamide))-SRIF28 [Example 59]
- GH ([1]; dose 10 nmol/kg): 314 ng/mL

Compound: S1C(disialo)-D-Trp22-SRIF28 [Example 15]
- GH ([1]; dose 0.3 nmol/kg): 986 ng/mL
- GH ([1]; dose 1 nmol/kg): 335 ng/mL
- GH ([1]; dose 3 nmol/kg): 50 ng/mL
- GH ([1]; dose 10 nmol/kg): 6 ng/mL
- GH ([1]; dose 30 nmol/kg): 2 ng/mL

Compound: S1C(monosialo)-SRIF28 [Example 26]
- GH ([1]; dose 10 nmol/kg): 47 ng/mL
